The values below come from patent US20250250261A1, “NOVEL SUBSTITUTED FLUORINATED VINYL-N-PROPYL-PYRROLIDINE COMPOUNDS, PROCESSES FOR THEIR PREPARATION AND THERAPEUTIC USES THEREOF” (SANOFI, priority 2022, published 2025).

The target of this experiment is T1, ERα (Homo sapiens, UniProt P03372).
T1 construct: host or cells: MCF7
T1 sequence (P03372 1-595): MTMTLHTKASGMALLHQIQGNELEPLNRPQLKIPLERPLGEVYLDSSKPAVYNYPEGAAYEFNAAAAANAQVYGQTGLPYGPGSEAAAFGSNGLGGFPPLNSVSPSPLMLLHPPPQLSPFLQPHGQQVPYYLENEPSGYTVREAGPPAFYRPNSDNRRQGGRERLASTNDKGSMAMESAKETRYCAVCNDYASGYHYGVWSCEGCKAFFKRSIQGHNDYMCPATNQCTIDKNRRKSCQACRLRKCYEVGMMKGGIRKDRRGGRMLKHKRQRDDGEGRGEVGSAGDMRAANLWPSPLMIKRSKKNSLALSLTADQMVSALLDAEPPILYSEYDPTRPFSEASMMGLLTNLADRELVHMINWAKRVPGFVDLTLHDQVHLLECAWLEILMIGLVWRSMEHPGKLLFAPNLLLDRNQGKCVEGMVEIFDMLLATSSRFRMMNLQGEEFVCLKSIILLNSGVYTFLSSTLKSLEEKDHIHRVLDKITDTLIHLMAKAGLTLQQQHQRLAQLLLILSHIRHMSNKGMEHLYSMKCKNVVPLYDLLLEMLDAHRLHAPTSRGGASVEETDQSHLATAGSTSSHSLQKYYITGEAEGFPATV
The experiment is described as follows: Estrogen receptor degradation activity: breast cancer cell ERα in cell western assay (MCF7 cells). The class given is cell-based. Conditions: 4 hours, % of ERα levels decrease relative to fulvestrant (0.1 μM) and DMSO. As to the method:
Test: Estrogen Receptor Degradation Activity
Said test involves measuring the in vitro degradation activity of the compounds of the Table 1a.
The measurements of the degradation activities were made using a breast cancer cell ERα in cell western assay as described hereunder.
MCF7 cells (ATCC) were seeded in 384 wells microplate (collagen coated) at a concentration of 10000 cells/30 μL per well in red phenol free MEM alpha medium (invitrogen) containing 5% charcoal dextran striped FBS. The following day, 9 points serial 1:5 dilution of each compound was added to the cells in 2.5 μL at final concentrations ranging from 0.3-0.0000018 μM (in table 2), or 0.1 μM for fulvestrant (using as positive control). At 4 hours post compound addition the cells were fixed by adding 25 μL of formalin (final concentration 5% formalin containing 0.1% triton) for 10 minutes at room temperature and then washed twice with PBS. Then, 50 μL of LI-COR blocking buffer containing 0.1% Triton was added to plate for 30 minutes at room temperature. LI-COR blocking buffer was removed and cells were incubated overnight at cold room with 50 μL anti-ER rabbit monoclonal antibody (Thermo scientific MA1-39540) diluted at 1:1000 in LI-COR blocking buffer containing 0.1% tween-20. Wells which were treated with blocking buffer but no antibody were used as background control. Wells were washed twice with PBS (0.1% tween-20) and incubated at 37° C. for 60 minutes in LI-COR (0.1% tween-20) containing goat anti-rabbit antibody Alexa 488 (1:1000) and Syto-64 a DNA dye (2 μM final concentration). Cells were then washed 3 times in PBS and scanned in ACUMEN explorer (TTP-Labtech). Integrated intensities in the green fluorescence and red fluorescence were measured to determine the levels of ERα and DNA respectively.
The degradation activity with respect to estrogen receptors in this test is given by the concentration which degrades 50% of the estrogen receptor (or IC50) in nM.
The % of ERα levels decrease were determined as follows: % inhibition=100*(1−(sample−fulvestrant:DMSO−fulvestrant)).
As to `Cl.O=C(O)c1ccc2c(c1)CCCC(c1ccc(Cl)cc1Cl)=C2c1ccc(/C=C2/CCN(CCCF)C2)cc1` [Compound 1, (Z)-8-(2,4-dichlorophenyl)-9-(4-((1-(3,3-fluoropropyl)pyrrolidin-3-ylidene)methyl)phenyl)-6,7-dihydro-5H-benzo[7]annulene-3-carboxylic acid, hydrochloride], the “% Degradation At 0.3 μM” value is 96%.
On to `O=C(O)c1ccc2c(c1)CCCC(c1ccc(F)cc1Cl)=C2c1ccc(/C=C2/CCN(CCCF)C2)cc1` [Compound 2, (Z)-8-(2-chloro-4-fluorophenyl)-9-(4-((1-(3,3-fluoropropyl)pyrrolidin-3-ylidene)methyl)phenyl)-6,7-dihydro-5H-benzo[7]annulene-3-carboxylic acid], for which the “% Degradation At 0.3 μM” value is listed as 91%.
On to `Cl.O=C(O)c1ccc2c(c1)OCCC(c1ccc(Cl)cc1Cl)=C2c1ccc(/C=C2/CCN(CCCF)C2)cc1` [Compound 3, (Z)-4-(2,4-dichlorophenyl)-5-(4-((1-(3-fluoropropyl)pyrrolidin-3-ylidene)methyl)phenyl)-2,3-dihydrobenzo[b]oxepine-8-carboxylic acid hydrochloride], for which the “% Degradation At 0.3 μM” value is on record as 95%.
Then `O=C(O)c1ccc2c(c1)CCCC(c1ccc(Cl)cc1Cl)=C2c1ccc(C=C2CCN(CCC(F)F)C2)cc1` [Compound 4, (Z)-8-(2,4-dichlorophenyl)-9-(4-((1-(3,3-difluoropropyl)pyrrolidin-3-ylidene)methyl)phenyl)-6,7-dihydro-5H-benzo[7]annulene-3-carboxylic acid], with 73%; and `Cl.O=C(O)c1ccc2c(c1)CCCC(c1ccc(F)cc1F)=C2c1ccc(/C=C2/CCN(CCC(F)F)C2)cc1` [Compound 5, (Z)-8-(2,4-difluorophenyl)-9-(4-((1-(3,3-difluoropropyl)pyrrolidin-3-ylidene)methyl)phenyl)-6,7-dihydro-5H-benzo[7]annulene-3-carboxylic acid hydrochloride], with 88%.
For `Cc1cc(F)ccc1C1=C(c2ccc(/C=C3/CCN(CCCF)C3)cc2)c2ccc(C(=O)O)cc2CCC1` [Compound 6, (Z)-8-(4-fluoro-2-methylphenyl)-9-(4-((1-(3-fluoropropyl)pyrrolidin-3-ylidene)methyl)phenyl)-6,7-dihydro-5H-benzo[7]annulene-3-carboxylic acid], the “% Degradation At 0.3 μM” value is given as 96%.
Regarding `FCCCN1CC/C(=C/c2ccc(C3=C(c4ccccc4Cl)CCCc4ccccc43)cc2)C1` [Compound 7, (Z)-3-(4-(8-(2-chlorophenyl)-6,7-dihydro-5H-benzo[7]annulen-9-yl)benzylidene)-1-(3-fluoropropyl)pyrrolidine], the “% Degradation At 0.3 μM” value was 82%.
On to `O=C(O)c1ccc2c(c1)CCCC(c1ccc(F)cc1C(F)(F)F)=C2c1ccc(/C=C2/CCN(CCCF)C2)cc1` [Compound 8, (Z)-8-(4-fluoro-2-(trifluoromethyl)phenyl)-9-(4-((1-(3-fluoropropyl)pyrrolidin-3-ylidene)methyl)phenyl)-6,7-dihydro-5H-benzo[7]annulene-3-carboxylic acid], for which the “% Degradation At 0.3 μM” value is on record as 90%.
On to `O=C(O)c1ccc2c(c1)CCCC(c1ccc(F)cc1F)=C2c1ccc(/C=C2/CCN(CCCF)C2)cc1` [Compound 9, (Z)-8-(2,4-difluorophenyl)-9-(4-((1-(3,3-fluoropropyl)pyrrolidin-3-ylidene)methyl)phenyl)-6,7-dihydro-5H-benzo[7]annulene-3-carboxylic], for which the “% Degradation At 0.3 μM” value was determined as 93%.
Consider `Cc1c(Cl)cccc1C1=C(c2ccc(/C=C3/CCN(CCCF)C3)cc2)c2ccc(C(=O)O)cc2CCC1` [Compound 10, (Z)-8-(3-chloro-2-methylphenyl)-9-(4-((1-(3-fluoropropyl)pyrrolidin-3-ylidene)methyl)phenyl)-6,7-dihydro-5H-benzo[7]annulene-3-carboxylic acid], for which the “% Degradation At 0.3 μM” value is 92%.
`Cc1cccc(C2=C(c3ccc(/C=C4/CCN(CCCF)C4)cc3)c3ccc(C(=O)O)cc3CCC2)c1C(F)(F)F` [Compound 11, (Z)-9-(4-((1-(3-fluoropropyl)pyrrolidin-3-ylidene)methyl)phenyl)-8-(3-methyl-2-(trifluoromethyl)phenyl)-6,7-dihydro-5H-benzo[7]annulene-3-carboxylic acid]: the “% Degradation At 0.3 μM” value is 93%.
For `Cc1cccc(C2=C(c3ccc(/C=C4/CCN(CCC(F)F)C4)cc3)c3ccc(C(=O)O)cc3CCC2)c1C(F)(F)F` [Compound 12, (Z)-9-(4-((1-(3,3-difluoropropyl)pyrrolidin-3-ylidene)methyl)phenyl)-8-(3-methyl-2-(trifluoromethyl)phenyl)-6,7-dihydro-5H-benzo[7]annulene-3-carboxylic acid], the “% Degradation At 0.3 μM” value is 85%.
`Cc1c(Cl)cccc1C1=C(c2ccc(/C=C3/CCN(CCC(F)F)C3)cc2)c2ccc(C(=O)O)cc2CCC1` [Compound 13, (Z)-8-(3-chloro-2-methylphenyl)-9-(4-((1-(3,3-difluoropropyl)pyrrolidin-3-ylidene)methyl)phenyl)-6,7-dihydro-5H-benzo[7]annulene-3-carboxylic acid]: the “% Degradation At 0.3 μM” value was 86%.
On to `Cc1c(C2=C(c3ccc(/C=C4/CCN(CCCF)C4)cc3)c3ccc(C(=O)O)cc3CCC2)cccc1C(F)(F)F` [Compound 14, (Z)-9-(4-((1-(3-fluoropropyl)pyrrolidin-3-ylidene)methyl)phenyl)-8-(2-methyl-3-(trifluoromethyl)phenyl)-6,7-dihydro-5H-benzo[7]annulene-3-carboxylic acid], for which the “% Degradation At 0.3 μM” value stood at 92%.
For `Cc1cc(F)ccc1C1=C(c2ccc(/C=C3/CCN(CCC(F)F)C3)cc2)c2ccc(C(=O)O)cc2CCC1` [Compound 15, (Z)-9-(4-((1-(3,3-difluoropropyl)pyrrolidin-3-ylidene)methyl)phenyl)-8-(4-fluoro-2-methylphenyl)-6,7-dihydro-5H-benzo[7]annulene-3-carboxylic acid], the “% Degradation At 0.3 μM” value was found to be 88%.
For the compound `Cl.Oc1ccc2c(c1)CCCC(c1ccc(Cl)cc1Cl)=C2c1ccc(/C=C2/CCN(CCCF)C2)cc1` [Compound 16, (Z)-8-(2,4-dichlorophenyl)-9-(4-((1-(3-fluoropropyl)pyrrolidin-3-ylidene)methyl)phenyl)-6,7-dihydro-5H-benzo[7]annulen-3-ol hydrochloride], the “% Degradation At 0.3 μM” value turned out to be 76%.
With `Oc1ccc2c(c1)CCCC(c1ccc(Cl)cc1Cl)=C2c1ccc(/C=C2/CCN(CCC(F)F)C2)cc1` [Compound 17, (Z)-8-(2,4-dichlorophenyl)-9-(4-((1-(3-difluoropropyl)pyrrolidin-3-ylidene)methyl)phenyl)-6,7-dihydro-5H-benzo[7]annulen-3-ol], the “% Degradation At 0.3 μM” value came to 61%.
`O=C(O)c1ccc2c(c1)CCCC(c1ccc(F)cc1C(F)(F)F)=C2c1ccc(/C=C2/CCN(CCC(F)F)C2)cc1` [Compound 18, (Z)-9-(4-((1-(3,3-difluoropropyl)pyrrolidin-3-ylidene)methyl)phenyl)-8-(4-fluoro-2-(trifluoromethyl)phenyl)-6,7-dihydro-5H-benzo[7]annulene-3-carboxylic acid]: the “% Degradation At 0.3 μM” value is on record as 86%.
Turning to `Cc1c(C2=C(c3ccc(/C=C4/CCN(CCC(F)F)C4)cc3)c3ccc(C(=O)O)cc3CCC2)cccc1C(F)(F)F` [Compound 19, (Z)-9-(4-((1-(3,3-difluoropropyl)pyrrolidin-3-ylidene)methyl)phenyl)-8-(2-methyl-3-(trifluoromethyl)phenyl)-6,7-dihydro-5H-benzo[7]annulene-3-carboxylic acid], the “% Degradation At 0.3 μM” value is 87%.
Turning to `Cc1cc(F)cc(C)c1C1=C(c2ccc(/C=C3/CCN(CCC(F)F)C3)cc2)c2ccc(C(=O)O)cc2CCC1` [Compound 20], the “% Degradation At 0.3 μM” value came out at 85%.
